{
  "source": "paper PMC10418735",
  "about": "“Lipophilic Studies and In Silico ADME Profiling of Biologically Active 2-Aminothiazol-4(5H)-one Derivatives” (International Journal of Molecular Sciences, 2023)",
  "key": {"[1]": {"test": "Lipophilicity by RP-TLC (methanol/water, HPTLC 60RP-18 plates)", "assay_type": "physicochemical", "settings": "for −S (slope of the regression curve), RP–TLC / RM0: methanol/water, RP-TLC; for RM0: extrapolated to zero methanol concentration, 22 °C; for Φ0 (chromatographic lipophilicity parameter), RP–TLC: Φ0 = −RM0/S", "procedure": "Specifically, 10 × 10 cm plates with silica gel HPTLC 60RP-18 WF254s (Merck, Darmstadt, Niemcy) were used as the stationary phase. Methanol and water for HPLC from POCH (Gliwice, Poland) were used as solvents. Methanol concentration expressed as volume fraction v/v, varied in the range from 0.5 to 0.7 in constant steps of 0.05. Test compounds were dissolved in methanol (2 mg/mL), and then samples (0.01 mL) of each were applied to plates, which were developed in a horizontal DS chamber (Chromdes, Lublin, Poland).\nThe developing distance was 8 cm. Developed plates were air-dried and observed under 254 nm ultraviolet lamp. All analyzes were performed at 22 °C. Experiments were performed in triplicate with similar results.\nFor all the compounds, the relative lipophilicity RM values for five methanol–water mobile phases were calculated by the use of the following formula:(4) RM=log[1−RF/RF].\nThe linear relationship between the RM values and the concentration of methanol in the mobile phase to determine the lipophilicity parameters RM0 is described by the following equation:(5) RM=RM0+SΦ, where Φ —methanol concentration in the mobile phase (volume fraction v/v), and S—the slope of the regression curve.\nThe quantity Φ0 was calculated from the following equation:(6) Φ0=−RM0/S."}, "[2]": {"test": "Lipophilicity by RP-HPLC (methanol/water, RP-18 column)", "assay_type": "physicochemical", "settings": "for −S (slope of the regression curve), RP–HPLC / log kw: methanol/water, RP-HPLC; for log kw: extrapolated to zero methanol concentration, 25 °C; for Φ0 (chromatographic lipophilicity parameter), RP–HPLC: Φ0 = −log kw/S", "procedure": "The HPLC experiments were performed on the Shimadzu HPLC system (Kyoto, Japan) equipped with solvent delivery pump LC-20AD, UV–VIS detector model SPD-20A, degasser model DGU-20A5, a column oven model CTO-20A, and a column Superspher® 100 RP-18 (4 μm), Merck (Darmstadt, Germany). Methanol and water for HPLC from POCH (Gliwice, Poland) were used as solvents. Mobile phase methanol/water varied in the various ratios. Methanol concentration expressed as volume fraction v/v, varied in the range from 0.55 to 0.95 in constant steps of 0.05. Compounds 1–28 were dissolved in methanol (1 mg/mL). The mobile phase flow rate was 0.7 mL/min. The injection volume was 0.02 mL. All analyzes were performed at 25 °C. Experiments were performed in triplicate with similar results.\nThe retention coefficient k was calculated from the following relationship:(1) k=tr/tm−1, where tr [min]—retention time, and tm [min]—time for dead volume (measured by use of uracil).\nTo determine the linear relationship between the values of the log k parameter and the concentration of methanol in the mobile phase, the Soczewiński–Wachtmeister equation was used:(2) logk= log kw+SΦ, where log kw —value extrapolated to zero methanol concentration, Φ —methanol concentration in the mobile phase (volume fraction v/v), and S—the slope of the regression curve.\nThe parameter Φ0 was calculated from the equation:(3) Φ0=−log kw/S."}},
  "data": [
    {"compound": "CC(C)NC1=NC(=O)C(C)S1", "note": "(stereo not drawn) [Compound 1, 5-methyl-2-isopropylaminothiazol-4(5H)-one]", "values": [
      {"measurement": "−S (slope of the regression curve), RP–TLC", "setting": "[1]", "value": 1.280},
      {"measurement": "RM0", "setting": "[1]", "value": 0.94},
      {"measurement": "Φ0 (chromatographic lipophilicity parameter), RP–TLC", "setting": "[1]", "value": 0.734},
      {"measurement": "−S (slope of the regression curve), RP–HPLC", "setting": "[2]", "value": 2.975},
      {"measurement": "log kw", "setting": "[2]", "value": 1.35},
      {"measurement": "Φ0 (chromatographic lipophilicity parameter), RP–HPLC", "setting": "[2]", "value": 0.454}
    ]},
    {"compound": "CCC1SC(NC23CC4CC(CC(C4)C2)C3)=NC1=O", "note": "(stereo not drawn) [Compound 20]", "values": [
      {"measurement": "−S (slope of the regression curve), RP–TLC", "setting": "[1]", "value": 2.678},
      {"measurement": "RM0", "setting": "[1]", "value": 2.30},
      {"measurement": "Φ0 (chromatographic lipophilicity parameter), RP–TLC", "setting": "[1]", "value": 0.860},
      {"measurement": "−S (slope of the regression curve), RP–HPLC", "setting": "[2]", "value": 4.437},
      {"measurement": "log kw", "setting": "[2]", "value": 3.6},
      {"measurement": "Φ0 (chromatographic lipophilicity parameter), RP–HPLC", "setting": "[2]", "value": 0.811}
    ]}
  ]
}
